Two compounds from patent US11357782B2, “Treprostinil administration by inhalation” (priority 2006, dated 2022) can be followed below.

Data set [1] deals with patients with pre-existing gas exchange problems. Put plainly: Ventilation-perfusion matching by multiple inert gas elimination technique (MIGET). To be noted: during NO-inhalation (20 ppm); mean±95% confidence interval; n=5. As to the method:
The impact of SMI-TRE on ventilation-perfusion matching was assessed in five patients (30 μg TRE, n=2; 45 μg TRE, n=1; 60 μg TRE, n=2) with pre-existing gas exchange problems by use of the multiple inert gas elimination technique (MIGET), see e.g. Wagner PD, Saltzman HA, West JB. Measurement of continuous distributions of ventilation-perfusion ratios: theory. J Appl Physiol. 1974; 36:588-99; Ghofrani HA, Wiedemann R, Rose F, Schermuly RT, Olschewski H, Weissmann N et al. Sildenafil for treatment of lung fibrosis and pulmonary hypertension: a randomised controlled trial. Lancet. 2002; 360:895-900, both incorporated herein in their entirety.
The inhalation of a highly concentrated aerosol can be in theory prone to disturbances of gas exchange because the deposition of even small amounts of aerosol may deliver high doses locally and thereby antagonize the hypoxic pulmonary vasoconstriction in poorly ventilated areas. This would then lead to increased shunt flow or increase of low ventilation/perfusion (V/Q) areas. This question was addressed in five patients with the multiple inert gas elimination technique (MIGET), the gold-standard for intrapulmonary V/Q ratio determination. The MIGET patients were selected for pre-existing gas exchange limitations. […] Etiologies were iPAH (n=1), CTEPH (n=3), pulmonary fibrosis (n=1).

Data set [2] deals with patients with moderate to severe precapillary pulmonary hypertension. Briefly: Study i) randomized crossover study of inhaled treprostinil vs inhaled iloprost, right heart catheter. It is filed as in vivo, human. On the procedure:
All inhalations were performed with the […]® ultrasonic nebulizer ([…], Germany). Study i) was a randomized, open-label, single-blind crossover study. […] Patient characteristics and hemodynamic as well as gas exchange parameters are outlined in Table 3. Each patient inhaled both iloprost and treprostinil on the same day during right heart catheter investigation; the drugs were administered consecutively with a one hour interval between the drug applications. One half of the study patients initially inhaled treprostinil and then inhaled iloprost (n=22), while the other half initially inhaled iloprost and then inhaled treprostinil (n=22). Patients were randomized to one of the two groups and blinded as to the study drugs. Drug effects were monitored for 60 minutes after each inhalation.

In the case of `[N]=O` [NO, nitric oxide], in data set [1], the shunt flow stood at 5.4±3.0%.
For `CC#CCC(C)[C@H](O)/C=C/[C@@H]1[C@H]2C/C(=C/CCCC(=O)O)C[C@H]2C[C@H]1O` (stereo partly shown) [iloprost], in data set [2] (7.5 μg inhaled in 6 minutes, start of inhalation until 60 min, mean±95% confidence interval), the “area under the curve (AUC) of PVR decrease” value came out at 7.7±3.7%. In data set [2] (after inhalation), the gas exchange entry is reported as “did not affect gas exchange” and the “systemic arterial pressure (SAP)” value is given as “transient decrease”. Also, the “side effects (transient flush, headache)” value in data set [2] (iloprost 7.5 μg, treprostinil 7.5-15 μg) is on record as “occasionally observed mild side effects”. In addition, the “maximum effect on PVR” value in data set [2] (iloprost vs treprostinil, pooled) was “comparable”. Further, the “time to maximum effect on PVR after inhalation” value in data set [2] (pooled n=44, mean±SEM, p<0.0001) came out at 8 ± 1 min.
